Laboratory results from patent US9956242B2, “Pharmaceutical composition for prevention or treatment of cognitive function disorders comprising spinosin” (MINISTRY OF FOOD AND DRUG SAFETY, priority 2011, dated 2018).
Where two headings read alike, the source gives them in different places.

Assays:
[1] = tested on: mice with memory impairment induced by scopolamine; experiment: Morris water maze test, scopolamine-induced memory impairment; format: in vivo, ICR mice; conditions: control group 1, donepezil 5 mg/Kg, scopolamine 1 mg/Kg i.p.
Description: (§1) 6-week-old ICR mice (Orient Bio Inc., Korea), weighing about 26 to 28 g, were fed with water and food freely available for 5 days in an environment, where the temperature was about 23±2° C., the humidity was about 55±10%, and the light-dark cycle was 12 hours (Animal Laboratory at the College of Pharmacy in Kyung Hee university), and used in the experiments.
A Morris water maze test apparatus was prepared for the experiment. Four labels such as star, square, triangle, and circle were put at regular intervals on a circular pool of 90 cm in diameter and 45 cm in height, and a platform of 29 cm in height was positioned below the star. Water was filled up to 0.5 cm from the platform (water temperature: 21±1° C.) and became cloudy with pigment such that the platform was not visible from the surface of the water.
160 mg of the zizyphi spinosi semen extract of Example 1 was dissolved in 4 mL of 10% Tween 80 (Polyoxyethylene sorbitan monooleate: Sigma, U.S.A.) and administered to drug administration groups 1 and 2 at doses of 100 mg/Kg and 200 mg/Kg. Meanwhile, donepezil (Sigma-Aldrich Chemistry Co.) was administered to control group 1 at a dose of 5 mg/Kg, and 10% Tween 80 was administered to control groups 2 and 3 at a dose of 0.15 mL.
After 30 minutes, the time taken for the mice, put down in one section of the pool, in drug administration groups 1 and 2 and control groups 1 to 3 to reach the platform was measured for 60 seconds. After 30 minutes, the time taken for the mice, repositioned to the original position, to reach the platform was measured until 60 seconds. The above-described process was repeated 4 times, and the average values were obtained. The experiment was performed in the same manner as on the first day while administering the drugs for 4 days, except that the position where the mice were first put down was changed.

[2] = tested on: mice with memory impairment induced by scopolamine; experiment: Y-maze test, scopolamine-induced memory impairment; format: in vivo, ICR mice; conditions: control group 1, donepezil 5 mg/Kg; scopolamine 1 mg/Kg i.p.
Description: as §1
A Y-maze was prepared for the experiment. The Y-maze had three arms, in which each arm was 42 cm in length, 3 cm in width, and 12 cm in height, the angle formed by three arms was 120 degrees, and the Y-maze was made of black polyvinyl resin.
160 mg of the zizyphi spinosi semen extract of Example 1 was dissolved in 4 mL of 10% Tween 80 (Polyoxyethylene sorbitan monooleate: Sigma, U.S.A.) and administered to drug administration groups 1 and 2 at doses of 100 mg/Kg and 200 mg/Kg. […]
After 30 minutes, the mice in drug administration groups 1 and 2 and control groups 1 to 3 were carefully placed on one of three arms of the Y-maze, divided into A, B, and C, respectively, and allowed to freely move, and then the arms where the mice entered were recorded. At this time, only the case where the mouse’ tail fully entered the arm was recorded as the arm where the experimental animal entered, and the case where the mouse entered the same arm was also recorded. […]

[3] = tested on: mice with memory impairment induced by scopolamine; conditions: for Present Experiment latency time: 24 hours after learning; for Learning latency time: learning trial; for latency time increase compared to control group 2 (scopolamine only): present experiment
[4] = tested on: mice with memory impairment induced by scopolamine; experiment: Passive avoidance test 2 (zizyphi spinosi semen extract), scopolamine-induced memory impairment; format: in vivo, ICR mice; conditions: control group 1, donepezil 5 mg/Kg, scopolamine 1 mg/Kg i.p.
Description: as §1
After 30 minutes, learning about the passive avoidance test apparatus was performed on the mice in drug administration groups 1 to 4 and control groups 1 to 3, respectively. Specifically, the mice were placed in the first space kept light, and after a seek time of about 20 seconds, the guillotine door was opened, and the latency time taken for the mice to move to the second space kept dark was measured.
After 24 hours since the learning was completed, the present experiment was performed on drug administration groups 1 to 4 and control groups 1 to 3, respectively. The latency tire taken for all four feet of the mouse to enter the dark space after the guillotine door was opened from the seek time of 10 seconds was measured up to 300 seconds. […]

[5] = control group 1, donepezil 5 mg/Kg, scopolamine 1 mg/Kg i.p.

## COc1cc2c(cc1OC)C(=O)C(CC1CCN(Cc3ccccc3)CC1)C2 (stereo not drawn) [donepezil]
[1]; 1st day
  Time to reach the platform: 59.34 ± 2.055 s
[1]; 2nd day
  Time to reach the platform: 48.75 ± 14.98 s
[1]; 3rd day
  Time to reach the platform: 42.80 ± 15.16 s
[1]; 4th day
  Time to reach the platform: 34.35 ± 13.80 s
[2]
  Alternation behavior (%): 65.71 ± 10.19%
  Total entry (total number of arm entries): 34.75 ± 7.265
[3]; [5]
  Present Experiment latency time: 151.9 ± 37.24 s
  Learning latency time: 25.13 ± 13.68 s
[4]; 24 hours after learning
  Present Experiment latency time: 140.5 ± 25.47 s
[4]; learning trial
  Learning latency time: 17.25 ± 5.365 s

## COc1cc2oc(-c3ccc(O)cc3)cc(=O)c2c(O)c1[C@@H]1O[C@H](CO)[C@@H](O)[C@H](O)[C@H]1O[C@@H]1O[C@H](CO)[C@@H](O)[C@H](O)[C@H]1O [spinosin, 6-(2-O-beta-D-Glocopyranosyl-beta-D-glucopyranosyl)-5-hydroxy-2-(4-hydroxyphenyl)-7-methoxy-4H-1-benzopyran-4-one]
[3]; 2.5 mg/Kg
  latency time increase compared to control group 2 (scopolamine only): about 20 seconds
[3]; 2.5 mg/Kg, scopolamine 1 mg/Kg i.p. 30 min later
  Learning latency time: 25.88 ± 13.72 s
[3]; 2.5 mg/Kg, scopolamine 1 mg/Kg i.p., measured up to 300 seconds
  Present Experiment latency time: 59.13 ± 46.88 s
[3]; 5 mg/Kg
  latency time increase compared to control group 2 (scopolamine only): about 2.5 times
[3]; 5 mg/Kg, scopolamine 1 mg/Kg i.p. 30 min later
  Learning latency time: 29.38 ± 18.17 s
[3]; 5 mg/Kg, scopolamine 1 mg/Kg i.p., measured up to 300 seconds
  Present Experiment latency time: 107.1 ± 91.70 s
[3]; 10 mg/Kg
  latency time increase compared to control group 2 (scopolamine only): about 3 times
[3]; 10 mg/Kg, scopolamine 1 mg/Kg i.p. 30 min later
  Learning latency time: 20.50 ± 9.196 s
[3]; 10 mg/Kg, scopolamine 1 mg/Kg i.p., measured up to 300 seconds
  Present Experiment latency time: 131.3 ± 69.94 s
[3]; 20 mg/Kg
  latency time increase compared to control group 2 (scopolamine only): about 3.5 times
[3]; 20 mg/Kg, scopolamine 1 mg/Kg i.p. 30 min later
  Learning latency time: 36.00 ± 16.45 s
[3]; 20 mg/Kg, scopolamine 1 mg/Kg i.p., measured up to 300 seconds
  Present Experiment latency time: 146.0 ± 83.53 s
[3]; drug administration groups 1 to 4, 2.5 to 20 mg/Kg
  latency time compared to control group 2 (in words): significantly increased
[3]; drug administration groups 3 and 4, 10 and 20 mg/Kg
  memory and learning ability compared to control group 1 (donepezil) (in words): improved to an extent similar to that in control group 1
